Assay results as given in patent US8999983B2, “Modulators of Hec1 activity and methods therefor” (Taivex Therapeutics Corporation, priority 2011, dated 2015).
pIC50: −log10 of the molar value. Read-outs that look alike come from different tables or passages of the source.

Assays:
Assay type in all cases: cell-based
[1] = test system: MDA-MB-468; experiment: Antiproliferation assay (MTS), MDA-MB-468 cells; conditions: Homo sapiens, MDA-MB-468, 96 h
Experimental: (§1) Cells were grown at 37° C. in a humidified atmosphere consisting of 5% CO2 and 95% air.
(§2) Antiproliferation Assays: Cells were plated in a 96-well culture plate with 2000-8000 cells per well. The compounds were prepared in DMSO and used to treat cells in a final concentration of less than 1% DMSO. Compound treatment started after overnight incubation of cells (T0). […] Compound was added to the plate in triplicate wells, and the plates were then incubated for 96 hours. DMSO (compound diluent) was also included and added to the plate in control wells. Cell viability was then determined by MTS assay using the CellTiter 96® aqueous non-radioactive cell proliferation assay system (Promega, Madison, Wis. 53711 USA). A plate reader (Vmax, Molecular Devices, Sunnyvale Calif. 94089 USA) was used to determine the optical densities, and the results were used to deduce concentration-response curves. […] The results were analyzed using linear regression software (GraphPad Prism 5; GraphPad Software Inc. La Jolla Calif. 92037 USA).

[2] = test system: MDA-MB-231; experiment: Antiproliferation assay (MTS), MDA-MB-231 cells; conditions: Homo sapiens, MDA-MB-231, 96 h, read-out: Antiproliferative IC50 MDA-MB-231, Table 1
Experimental: as §1, §2

[3] = test system: Hela; experiment: Antiproliferation assay (MTS), HeLa cells; conditions: Homo sapiens, 96 h
Experimental: as §1, §2

[4] = test system: K562; experiment: Antiproliferation assay (MTS), K562 cells; conditions: Homo sapiens, K562, 96 h
Experimental: as §1, §2

[5] = Table 1, read-out: Antiproliferative IC50 MDA-MB-468
[6] = Table 1, read-out: Antiproliferative IC50 Hela
[7] = Table 1, read-out: Antiproliferative IC50 K562
[8] = Table 2, read-out: Antiproliferative IC50 Hela

| SMILES | pIC50 [1, 5] | pIC50 [2] | pIC50 [3, 6] | pIC50 [4, 7] | pIC50 [3, 8] | pIC50 ([4]; Table 2, read-out: Antiproliferative IC50 K562) | pIC50 ([1]; Table 2, read-out: Antiproliferative IC50 MDA-MB-468) |
| --- | --- | --- | --- | --- | --- | --- | --- |
| Cc1cc(N(C)C)cc(C)c1-c1csc(NC(=O)c2ccncc2)n1 [Compound 1, N-{4-(4-(Dimethylamino)-2,6-dimethylphenyl)thiazol-2-yl}isonicotinamide] | 6.78 | 6.84 | 6.60 | 7.06 |  |  |  |
| COc1ccc(Oc2cc(C)c(-c3nc(NC(=O)c4ccncc4)sc3Br)c(C)c2)cc1 [Compound 2, N-{5-Bromo-4-(4-(4-methoxyphenoxy)-2,6-dimethylphenyl)thiazol-2-yl}isonicotinamide] | 6.23 | 6.32 | 6.18 | 6.56 |  |  |  |
| COc1ccc(Sc2cc(C)c(-c3csc(NC(=O)c4ccncc4)n3)c(Cl)c2)cc1 [Compound 3, N-{4-(2-Chloro-4-(4-methoxyphenylsulfanyl)-6-methylphenyl)thiazol-2-yl}isonicotinamide] | 7.57 | 7.55 | 7.57 | 7.63 |  |  |  |
| Cc1cc(OCC2CC2)cc(C)c1-c1csc(NC(=O)c2ccncc2)n1 [Compound 4, N-{4-(4-(Cyclopropylmethoxy)-2,6-dimethylphenyl)thiazol-2-yl}isonicotinamide] | 6.61 | 6.80 | 6.55 | 6.69 |  |  |  |
| Cc1cc(Oc2ccc(O)nc2)cc(C)c1-c1csc(NC(=O)c2ccncc2)n1 [Compound 5, N-{4-(4-(6-Hydroxypyridin-3-yloxy)-2,6-dimethylphenyl)thiazol-2-yl}isonicotinamide] | 6.00 | 5.91 | 6.04 | 6.25 |  |  |  |
| Cc1cc(Oc2ncccn2)cc(C)c1-c1csc(NC(=O)c2ccncc2)n1 [Compound 6, N-{4-(2,6-Dimethyl-4-(pyrimidin-2-yloxy)phenyl)thiazol-2-yl}isonicotinamide] | 6.18 | 6.15 | 5.99 | 6.44 |  |  |  |
| Cc1cc(Oc2cnccn2)cc(C)c1-c1csc(NC(=O)c2ccncc2)n1 [Compound 7, N-{4-(2,6-Dimethyl-4-(pyrazin-2-yloxy)phenyl)thiazol-2-yl}isonicotinamide] | 6.72 | 6.79 | 6.66 | 7.04 |  |  |  |
| COc1cnc(Oc2cc(C)c(-c3csc(NC(=O)c4ccncc4)n3)c(C)c2)nc1 [Compound 8, N-{4-(4-(5-Methoxypyrimidin-2-yloxy)-2,6-dimethylphenyl)thiazol-2-yl}isonicotinamide] | 7.07 | 6.92 | 6.89 | 7.14 |  |  |  |
| COc1ccc(Oc2cc(C)c(-c3csc(NC(=O)c4ccncc4)n3)c(C)c2)cn1 [Compound 9, N-{4-(4-(6-Methoxypyridin-3-yloxy)-2,6-dimethylphenyl)thiazol-2-yl}isonicotinamide] | 7.32 | 7.18 | 7.09 | 7.41 |  |  |  |
| COc1cc(Cl)c(-c2csc(NC(=O)c3ccncc3)n2)c(Cl)c1 [Compound 10, N-(4-(2,6-Dichloro-4-methoxyphenyl)thiazol-2-yl)isonicotinamide] | 5.18 | 5.63 | 5.35 | 6.20 |  |  |  |
| Cc1cc(Sc2cnccn2)cc(C)c1-c1csc(NC(=O)c2ccncc2)n1 [Compound 11, N-{4-(2,6-Dimethyl-4-(pyrazin-2-ylthio)phenyl)thiazol-2-yl}isonicotinamide] | 7.28 | 7.32 | 7.48 | 7.42 |  |  |  |
| COc1cc(F)c(-c2csc(NC(=O)c3ccncc3)n2)c(Cl)c1 [Compound 13, N-(4-(2-Chloro-6-fluoro-4-methoxyphenyl)thiazol-2-yl)isonicotinamide] | 5.99 | 6.41 | 6.43 | 6.61 |  |  |  |
| COc1cc(F)cc(Cl)c1-c1csc(NC(=O)c2ccncc2)n1 [Compound 14, N-(4-(2-Chloro-4-fluoro-6-methoxyphenyl)thiazol-2-yl)isonicotinamide] | 5.03 | 5.20 | 5.52 | 5.43 |  |  |  |
| Cc1cc(Oc2ccc(OC(C)C)cc2)cc(C)c1-c1csc(NC(=O)c2ccncc2)n1 [Compound 16, N-{4-(4-(4-Isopropoxyphenoxy)-2,6-dimethylphenyl)thiazol-2-yl}isonicotinamide] | 7.16 | 7.09 | 7.10 | 7.23 |  |  |  |
| COc1ccc(Oc2cc(C)c(-c3csc(NC(=O)c4ccncc4)n3)c(C)c2)nc1 [Compound 18, N-(4-{4-((5-Methoxypyridin-2-yl)oxy)-2,6-dimethylphenyl}thiazol-2-yl)isonicotinamide] | 7.31 | 7.39 | 7.39 | 7.36 |  |  |  |
| Cc1cc(OCCN(C)C)cc(C)c1-c1csc(NC(=O)c2ccncc2)n1 [Compound 23, N-(4-{4-(2-(Dimethylamino)ethoxy)-2,6-dimethylphenyl}thiazol-2-yl)isonicotinamide] | < 5.00 | < 5.00 | < 5.00 | < 5.00 |  |  |  |
| Cc1cc(Oc2ccc([N+](=O)[O-])nc2)cc(C)c1-c1csc(NC(=O)c2ccncc2)n1 [Compound 24, N-{4-(2,6-Dimethyl-4-(6-nitropyridin-3-yloxy)phenyl)thiazol-2-yl}isonicotinamide] | 6.80 | 6.74 | 7.13 | 6.83 |  |  |  |
| Cc1cc(Oc2ccc(Oc3ccccc3)cc2)cc(C)c1-c1csc(NC(=O)c2ccncc2)n1 [Compound 26, N-{4-(2,6-Dimethyl-4-(4-phenoxyphenoxy)phenyl)thiazol-2-yl}isonicotinamide] | 6.88 | 7.00 | 7.07 | 7.19 |  |  |  |
| Cc1cc(Sc2cnc(OCCN(C)C)cn2)cc(C)c1-c1csc(NC(=O)c2ccncc2)n1 [Compound 28, N-(4-(4-{5-(2-(Dimethylamino)ethoxy)pyrazin-2-ylthio}-2,6-dimethylphenyl)thiazol-2-yl)isonicotinamide] | 7.13 | 6.91 | 7.48 | 7.23 |  |  |  |
| COCCNc1ccc(Oc2cc(C)c(-c3csc(NC(=O)c4ccncc4)n3)c(C)c2)cn1 [Compound 29, N-(4-{4-(6-(2-Methoxyethylamino)pyridin-3-yloxy)-2,6-dimethylphenyl}thiazol-2-yl)isonicotinamide] | 7.78 | 7.66 | 8.08 | 7.93 |  |  |  |
| COc1ccc(Oc2cc(C)c(-c3csc(NC(=O)c4ccncc4)n3)c(F)c2)cc1 [Compound 30, N-{4-(2-Fluoro-4-(4-methoxyphenoxy)-6-methylphenyl)thiazol-2-yl}isonicotinamide] | 6.84 | 6.57 | 6.97 | 6.97 |  |  |  |
| COCCOc1cnc(S(=O)(=O)c2cc(C)c(-c3csc(NC(=O)c4ccncc4)n3)c(C)c2)cn1 [Compound 31, N-(4-{4-(5-(2-Methoxyethoxy)pyrazin-2-ylsulfonyl)-2,6-dimethylphenyl}thiazol-2-yl)isonicotinamide] | 6.00 | 5.95 | 6.02 | 6.20 |  |  |  |
| COCCOc1cnc([S+]([O-])c2cc(C)c(-c3csc(NC(=O)c4ccncc4)n3)c(C)c2)cn1 (centres unmarked) [Compound 32, N-(4-{4-(5-(2-Methoxyethoxy)pyrazin-2-ylsulfinyl)-2,6-dimethylphenyl}thiazol-2-yl)isonicotinamide] | 5.89 | 5.77 | 5.95 | 6.13 |  |  |  |
| COc1cc(C)c(-c2csc(NC(=O)Nc3ccncc3)n2)c(C)c1 [Compound 45, 1-(4-(4-Methoxy-2,6-dimethylphenyl)thiazol-2-yl)-3-(pyridin-4-yl)urea] | 6.21 | 6.20 |  | 6.31 |  |  |  |
| Cc1cc(C)c(-c2csc(NC(=O)/C=C/c3cccnc3)n2)c(C)c1 [Compound 50, (E)-N-(4-Mesitylthiazol-2-yl)-3-(pyridin-3-yl)acrylamide] | 5.66 | 5.95 |  |  |  |  |  |
| Cc1cc(Nc2ccc(Br)cc2)cc(C)c1-c1csc(NC(=O)c2ccncc2)n1 [Compound 52, N-(4-(4-(4-Bromophenylamino)-2,6-dimethylphenyl)thiazol-2-yl)isonicotinamide] |  | 6.14 | 5.67 | 6.44 |  |  |  |
| COc1cc(C)c(-c2csc(NC(=O)Nc3ccncc3)n2)c(C)c1 [II-67, 1-(4-(4-Methoxy-2,6-dimethylphenyl)thiazol-2-yl)-3-(pyridin-4-yl)urea] |  |  |  |  | < 5.00 |  |  |
| Cc1cc(C)c(-c2csc(NC(=O)/C=C/c3cccnc3)n2)c(C)c1 [II-103, (E)-N-(4-Mesitylthiazol-2-yl)-3-(pyridin-3-yl)acrylamide] |  |  |  |  | < 5.00 | 5.61 |  |
| Cc1cc(Nc2ccc(Br)cc2)cc(C)c1-c1csc(NC(=O)c2ccncc2)n1 [II-122, N-(4-(4-(4-Bromophenylamino)-2,6-dimethylphenyl)thiazol-2-yl)isonicotinamide] |  |  |  |  |  |  | 5.91 |
